Laboratory results from patent publication US20070142392A1, “Uses of rifamycins” (ActivBiotics, Inc., priority 2005, published 2007).
Values after ≈ are worked out from the molar mass of the structure shown.

Assays:
Type in all cases: cell-based
S. pneumo. = experiment: MIC values, S. pneumo. (Tables 1-4)
H. flu = tested on: H. flu
S. aureus = experiment: MIC values, S. aureus (Tables 1-4)
E. faecalis = experiment: MIC values, E. faecalis (Tables 1-4)
E. coli = experiment: MIC values, E. coli (Tables 1-4)

Compound | MIC S. pneumo. (S. pneumo.) [ng/mL] | MIC H. flu (H. flu) [ng/mL] | MIC S. aureus (S. aureus) [ng/mL] | MIC E. faecalis (E. faecalis) [ng/mL] | MIC E. coli (E. coli) [ng/mL]
COc1c(N2CCCC2)cc(C)c2nc3c4c5c6c(C)c(O)c4c(=O)c(c-3oc12)NC(=O)/C(C)=C\C=C\[C@H](C)[C@H](O)[C@@H](C)[C@@H](O)[C@@H](C)[C@H](O)[C@H](C)[C@@H](OC)/C=C/O[C@@](C)(O6)C5=O [Compound 121] | 30 (≈ 35 nM) | 120 (≈ 140 nM) | 60 (≈ 70.1 nM) | 2000 (≈ 2340 nM) | 8000 (≈ 9350 nM)
CO[C@H]1/C=C/O[C@@]2(C)Oc3c(C)c(O)c4c(=O)c(c5oc6cc(N7CCCN(C)CC7)cc(O)c6nc-5c4c3C2=O)NC(=O)/C(C)=C\C=C\[C@H](C)[C@H](O)[C@@H](C)[C@@H](O)[C@@H](C)[C@H](O)[C@@H]1C [Compound 124] | 0.12 (≈ 0.138 nM) | 250 (≈ 287 nM) | 4 (≈ 4.59 nM) | 30 (≈ 34.4 nM) | 4000 (≈ 4590 nM)
CO[C@H]1/C=C/O[C@@]2(C)Oc3c(C)c(O)c4c(=O)c(c5oc6cc(N(C)CCC#N)ccc6nc-5c4c3C2=O)NC(=O)/C(C)=C\C=C\[C@H](C)[C@H](O)[C@@H](C)[C@@H](O)[C@@H](C)[C@H](O)[C@@H]1C [Compound 130] | 8 (≈ 9.7 nM) | 120 (≈ 145 nM) | 60 (≈ 72.7 nM) | 500 (≈ 606 nM) | 8000 (≈ 9700 nM)
COC1C=COC2(C)Oc3c(C)c(O)c4c(=O)c(c5oc6cc(N7CC(C)NCC7C)cc(O)c6nc-5c4c3C2=O)NC(=O)C(C)=CC=CC(C)C(O)C(C)C(O)C(C)C(O)C1C (centres unmarked) [Compound 100] | 0.5 (≈ 0.574 nM) | 250 (≈ 287 nM) | 4 (≈ 4.59 nM) | 120 (≈ 138 nM) | 4000 (≈ 4590 nM)
COC1C=COC2(C)Oc3c(C)c(O)c4c(=O)c(c5oc6cc(N7CC8CCCNC8C7)cc(O)c6nc-5c4c3C2=O)NC(=O)C(C)=CC=CC(C)C(O)C(C)C(O)C(C)C(O)C1C (centres unmarked) [Compound 15] | 2 (≈ 2.26 nM) | 1000 (≈ 1130 nM) | 30 (≈ 34 nM) | 250 (≈ 283 nM) | >8000
COC1C=COC2(C)Oc3c(C)c(O)c4c(=O)c(c5oc6cc(N7CC8CCCNC8C7)cc(O)c6nc-5c4c3C2=O)NC(=O)C(C)=CC=CC(C)C(O)C(C)C(O)C(C)C(OC(C)=O)C1C (centres unmarked) [Compound 141] | 0.25 (≈ 0.27 nM) | 2000 (≈ 2160 nM) | 15 (≈ 16.2 nM) | 500 (≈ 541 nM) | 8000 (≈ 8650 nM)
CO[C@H]1/C=C/O[C@@]2(C)Oc3c(C)c(O)c4c(=O)c(c5oc6cc(N7CCC(N(C)C)CC7)cc(O)c6nc-5c4c3C2=O)NC(=O)/C(C)=C\C=C\[C@H](C)[C@H](O)[C@@H](C)[C@@H](O)[C@@H](C)[C@H](O)[C@@H]1C [Compound 18] | 0.12 (≈ 0.136 nM) | 500 (≈ 565 nM) | 4 (≈ 4.52 nM) | 120 (≈ 136 nM) | 4000 (≈ 4520 nM)
COC1C=COC2(C)Oc3c(C)c(O)c4c(=O)c(c5oc6cc(N7CC8CCCN(C(C)=O)C8C7)cc(O)c6nc-5c4c3C2=O)NC(=O)C(C)=CC=CC(C)C(O)C(C)C(O)C(C)C(O)C1C (centres unmarked) [Compound 46] | 0.06 (≈ 0.0649 nM) | 500 (≈ 541 nM) | 4 (≈ 4.32 nM) | 2000 (≈ 2160 nM) | >8000
CO[C@H]1/C=C/O[C@@]2(C)Oc3c(C)c(O)c4c(=O)c(c5oc6cc(N7CCC(CCO)CC7)cc(O)c6nc-5c4c3C2=O)NC(=O)/C(C)=C\C=C\[C@H](C)[C@H](O)[C@@H](C)[C@@H](O)[C@@H](C)[C@H](O)[C@@H]1C [Compound 66] | 0.5 (≈ 0.564 nM) | 120 (≈ 135 nM) | 4 (≈ 4.51 nM) | 120 (≈ 135 nM) | 4000 (≈ 4510 nM)
CCOC(=O)NC1CCN(c2cc(O)c3nc4c5c6c7c(C)c(O)c5c(=O)c(c-4oc3c2)NC(=O)/C(C)=C\C=C\[C@H](C)[C@H](O)[C@@H](C)[C@@H](O)[C@@H](C)[C@H](OC(C)=O)[C@H](C)[C@@H](OC)/C=C/O[C@@](C)(O7)C6=O)CC1 [Compound 1] | 0.25 (≈ 0.257 nM) | 2000 (≈ 2060 nM) | 8 (≈ 8.24 nM) | 2000 (≈ 2060 nM) | >8000
CCCNC(=O)NC1CCN(c2cc(O)c3nc4c5c6c7c(C)c(O)c5c(=O)c(c-4oc3c2)NC(=O)/C(C)=C\C=C\[C@H](C)[C@H](O)[C@@H](C)[C@@H](O)[C@@H](C)[C@H](O)[C@H](C)[C@@H](OC)/C=C/O[C@@](C)(O7)C6=O)CC1 [Compound 26] | 0.12 (≈ 0.127 nM) | 1000 (≈ 1060 nM) | 8 (≈ 8.49 nM) | 2000 (≈ 2120 nM) | >8000
CO[C@H]1/C=C/O[C@@]2(C)Oc3c(C)c(O)c4c(=O)c(c5oc6cc(N7CC8CCC(C7)N8)cc(O)c6nc-5c4c3C2=O)NC(=O)/C(C)=C\C=C\[C@H](C)[C@H](O)[C@@H](C)[C@@H](O)[C@@H](C)[C@H](O)[C@@H]1C [Compound 146] | 1 (≈ 1.15 nM) | 250 (≈ 288 nM) | 15 (≈ 17.3 nM) | 120 (≈ 138 nM) | 4000 (≈ 4600 nM)
CCOC(=O)NCC1CCN(c2cc(O)c3nc4c5c6c7c(C)c(O)c5c(=O)c(c-4oc3c2)NC(=O)/C(C)=C\C=C\[C@H](C)[C@H](O)[C@@H](C)[C@@H](O)[C@@H](C)[C@H](OC(C)=O)[C@H](C)[C@@H](OC)/C=C/O[C@@](C)(O7)C6=O)CC1 [Compound 51] | 2 (≈ 2.03 nM) | 250 (≈ 254 nM) | 60 (≈ 60.9 nM) | 8000 (≈ 8120 nM) | 8000 (≈ 8120 nM)
CO[C@H]1/C=C/O[C@@]2(C)Oc3c(C)c(O)c4c(=O)c(c5oc6cc(N7CCOCC7)cc(O)c6nc-5c4c3C2=O)NC(=O)/C(C)=C\C=C\[C@H](C)[C@H](O)[C@@H](C)[C@@H](O)[C@@H](C)[C@H](O)[C@@H]1C [Compound 131] | 0.25 (≈ 0.296 nM) | 120 (≈ 142 nM) | 4 (≈ 4.74 nM) | 60 (≈ 71.1 nM) | >8000
CO[C@H]1/C=C/O[C@@]2(C)Oc3c(C)c(O)c4c(=O)c(c5n(C)c6ccccc6nc-5c4c3C2=O)NC(=O)/C(C)=C\C=C\[C@H](C)[C@H](O)[C@@H](C)[C@@H](O)[C@@H](C)[C@H](O)[C@@H]1C [Compound 134] | 500 (≈ 661 nM) | 2000 (≈ 2650 nM) | 500 (≈ 661 nM) | 2000 (≈ 2650 nM) | 8000 (≈ 10600 nM)
CO[C@H]1/C=C/O[C@@]2(C)Oc3c(C)c(O)c4c(=O)c(c5oc6cc(N7C[C@@H](C)N[C@@H](C)C7)cc(O)c6nc-5c4c3C2=O)NC(=O)/C(C)=C\C=C\[C@H](C)[C@H](O)[C@@H](C)[C@@H](O)[C@@H](C)[C@H](O)[C@@H]1C [Compound 90] | 0.5 (≈ 0.574 nM) | 250 (≈ 287 nM) | 8 (≈ 9.18 nM) | 60 (≈ 68.9 nM) | 4000 (≈ 4590 nM)
CCOC(=O)NC1CCN(c2ccc3nc4c5c6c7c(C)c(O)c5c(=O)c(c-4n(C)c3c2)NC(=O)/C(C)=C\C=C\[C@H](C)[C@H](O)[C@@H](C)[C@@H](O)[C@@H](C)[C@H](OC(C)=O)[C@H](C)[C@@H](OC)/C=C/O[C@@](C)(O7)C6=O)CC1 [Compound 19] | 1 (≈ 1.03 nM) | 250 (≈ 258 nM) | 4 (≈ 4.13 nM) | 60 (≈ 62 nM) | 4000 (≈ 4130 nM)
CO[C@H]1/C=C/O[C@@]2(C)Oc3c(C)c(O)c4c(=O)c(c5oc6cc(N7CCC(NS(=O)(=O)C(F)(F)F)CC7)cc(O)c6nc-5c4c3C2=O)NC(=O)/C(C)=C\C=C\[C@H](C)[C@H](O)[C@@H](C)[C@@H](O)[C@@H](C)[C@H](O)[C@@H]1C [Compound 38] | 15 (≈ 15.2 nM) | 250 (≈ 253 nM) | 120 (≈ 121 nM) | 8000 (≈ 8090 nM) | >8000
COCCOC(=O)NC1CCN(c2cc(O)c3nc4c5c6c7c(C)c(O)c5c(=O)c(c-4oc3c2)NC(=O)/C(C)=C\C=C\[C@H](C)[C@H](O)[C@@H](C)[C@@H](O)[C@@H](C)[C@H](OC(C)=O)[C@H](C)[C@@H](OC)/C=C/O[C@@](C)(O7)C6=O)CC1 [Compound 41] | 0.5 (≈ 0.499 nM) | 2000 (≈ 2000 nM) | 250 (≈ 250 nM) | >8000 | >8000
CO[C@H]1/C=C/O[C@@]2(C)Oc3c(C)c(O)c4c(=O)c(c5oc6cc(N7CCC(NC(=O)OC(C)(C)C)CC7)cc(O)c6nc-5c4c3C2=O)NC(=O)/C(C)=C\C=C\[C@H](C)[C@H](O)[C@@H](C)[C@@H](O)[C@@H](C)[C@H](O)[C@@H]1C [Compound 52] | 0.25 (≈ 0.261 nM) | 120 (≈ 125 nM) | 15 (≈ 15.7 nM) | 4000 (≈ 4180 nM) | >8000
COC1C=COC2(C)Oc3c(C)c(O)c4c(=O)c(c5oc6cc(N7CC8CCCN(C(C)=O)C8C7)cc(O)c6nc-5c4c3C2=O)NC(=O)C(C)=CC=CC(C)C(O)C(C)C(O)C(C)C(O)C1C (centres unmarked) [Compound 150] | 0.06 (≈ 0.0649 nM) | 500 (≈ 541 nM) | 4 (≈ 4.32 nM) | 2000 (≈ 2160 nM) | >8000
CO[C@H]1/C=C/O[C@@]2(C)Oc3c(C)c(O)c4c(=O)c(c5oc6cc(N7CCC(CNC(C)=O)CC7)cc(O)c6nc-5c4c3C2=O)NC(=O)/C(C)=C\C=C\[C@H](C)[C@H](O)[C@@H](C)[C@@H](O)[C@@H](C)[C@H](O)[C@@H]1C [Compound 56] | 1 (≈ 1.1 nM) | 250 (≈ 274 nM) | 4 (≈ 4.38 nM) | 120 (≈ 131 nM) | 8000 (≈ 8760 nM)
